From patent EP4806904A1, “POLYPEPTIDE AND USE THEREOF” (Sichuan Gooddoctor Panxi Pharmaceutical Co. Ltd, priority 2023, dated 2026)
Where a SMILES comes first, the peptide text is derived from it. Where no end group is shown, it is not given here. [ ]: non-standard residue; d: D form.

Assays:
[1] = test system: Brain microvascular endothelial cells (BMECs) and brain microvascular smooth muscle cells (BMVSMCs); assay: In vitro angiogenesis assay, BMEC/BMVSMC co-culture on matrigel; type: cell-based, mouse; conditions: 0.1 mg/L, 48 h
Description: First, mouse brain microvascular pellets were obtained by differential centrifugation. Brain microvascular endothelial cells (BMECs) and brain microvascular smooth muscle cells (BMVSMCs) were isolated by digestion with collagenase II, respectively, and cultured in a cell incubator with 5% CO2 at 37°C . Cells at passages 3-6 in good growth condition and logarithmic growth phase were selected for the in vitro angiogenesis assay.
One night before the experiment, the high-concentration matrigel was transferred from a -20°C or -80°C refrigerator to a 4°C refrigerator and allowed to thaw slowly overnight in the 4°C refrigerator. Pipette tips required for the formal experiment were sterilized in advance and pre-cooled in a 4°C refrigerator for subsequent use.
On the day of the experiment, the matrigel was added to a 96-well plate 1 h in advance and placed in a 37°C cell incubator until it solidified. Subsequently, the cells were washed 2 times with 2 mL of PBS buffer, followed by digestion with 0.25% trypsin to obtain EC and VSMC pellets, respectively, and cell counting was performed. A uniform cell suspension containing 5×10^3 BMVSMCs and 1×10^3 BMECs per well was then seeded into the 96-well plate pre-coated with the matrigel, and cultured in a 37°C, 5% CO2 cell incubator for 3 days.
During the culture period, tube formation was observed daily. The medium was changed on day 4, followed by treatment with the polypeptide of the invention at 0.1 mg/L or VEGFA at 10/15/20 ng/L for 48 h, respectively.
On day 5, the cell nuclei and live cells were labeled with Hoechst 33342 and Calcein AM, respectively. High-content brightfield and fluorescence imaging were then performed using a high-content screening system. Finally, angiogenesis in each treatment group was analyzed using the Angiogenesis Analyzer plugin for ImageJ, and statistical analysis was carried out with GraphPad Prism 10.

[2] = test system: neural stem cell line C17.2; assay: Proliferation of neural stem cell line C17.2, BrdU, high-content imaging; type: cell-based; conditions: 100 µg/mL, 48 h; for number of BrdU positive cells: vs blank control group, in words; for Proliferation-promoting results: percentage of BrdU-positive cells, significance vs blank control group
Description: • (1) C17.2 cells were seeded in 96-well plates at a concentration of 1500 cells/100 µL/well. After overnight culture for cell adherence, the cells were treated with drugs; • (2) Drug treatment was applied. The final concentration of the polypeptide of the invention was 100 µg/mL. Meanwhile, butylphthalide (NBP, 5 µM) was set as the positive control. The cells were cultured in the incubator for another 48 h; • (3) BrdU was added at 44 h of treatment to a final concentration of 10 µM. Immunofluorescence staining was performed 4 h later, and the percentage of BrdU-positive cells was statistically analyzed using a high-content cell imaging analysis system.

[3] = test system: primary neural stem cells (NSCs); assay: Differentiation of primary neural stem cells, βIII-tubulin fluorescence and Neurite Outgrowth Assay; type: cell-based, SD rats; conditions: 100 µg/mL; for Longest neurite length / Neurite initiation points (branches) / Number of neurite terminals / Total neurite length / mean fluorescence intensity of the neuronal marker protein βIII-tubulin / Average fluorescence intensity / neurite outgrowth (total neurite length, maximum neurite length, neurite terminals, neurite initiation points): 4 days; for Longest neurite length / Neurite initiation points (branches) / Number of neurite terminals / Total neurite length / Average fluorescence intensity: significance vs blank control group; for mean fluorescence intensity of the neuronal marker protein βIII-tubulin: vs blank control group; for mean fluorescence intensity of the neuronal marker protein βIII-tubulin / neurite outgrowth (total neurite length, maximum neurite length, neurite terminals, neurite initiation points): in words; for Average fluorescence intensity: βIII-tubulin; for neurite outgrowth (total neurite length, maximum neurite length, neurite terminals, neurite initiation points): Neurite Outgrowth Assay
Description: This part of the experiment requires feeding male and female rats in advance, then extracting hippocampal neural stem cells from newborn SD rats within 24 h of birth, culturing them to P3 for identification, and then using them for experiments. • (1) Extraction and culture of primary neural stem cells (NSCs) • (2) NSCs that have been passaged to P3 and have good viability were seeded in differentiation medium (2% FBS+DMEM/F12 1:1 medium) in 48-well plates with a cell concentration of 5×10^4 cells/mL per well. After overnight culture for cell adherence, the cells were treated with drugs; • (3) Drug treatment was applied. The final concentration of the polypeptide of the invention was 100 µg/mL. Meanwhile, nerve growth factor (NGF, 50 ng/mL) was set as the positive control, and the cells were cultured in the incubator for another 4 days; • (4) Immunofluorescence staining (primary antibody βIII-tubulin) was performed after 4 days of treatment. The average fluorescence intensity of βIII-tubulin was analyzed and the Neurite Outgrowth Assay was performed using a high-content cell imaging analysis system.

[4] = significance vs blank control group

Row | Compound | Cell count [1, 4] | cell proliferation ([1]; vs normal group, in words) | number of BrdU positive cells [2] | Longest neurite length [3] | Neurite initiation points (branches) [3] | Number of neurite terminals [3] | Total neurite length [3] | mean fluorescence intensity of the neuronal marker protein βIII-tubulin [3] | differentiation of NSCs into neuronal cells ([3]; conclusion based on the results of the two analytical methods) | Average fluorescence intensity [3] | Number of intersections [1, 4] | Branch length ([1]; vs normal group, in words) | number of junctions ([1]; vs normal group, in words) | Proliferation-promoting results [2] | Branch length [1, 4] | angiogenesis-promoting effects ([1]; vs normal group, in words) | neurite outgrowth (total neurite length, maximum neurite length, neurite terminals, neurite initiation points) [3]
1 | CC(C)C[C@H](NC(=O)[C@@H](NC(=O)CNC(=O)[C@@H]1CCCN1C(=O)[C@H](C)NC(=O)[C@@H]1CCCN1C(=O)[C@@H](CC(C)C)NC(=O)[C@H](C)N)[C@@H](C)O)C(=O)O [Compound 3, H-Ala-D-Leu-Pro-Ala-Pro-Gly-Thr-Leu-OH] (H-A[dL]PAPGTL-OH) | * (*p < 0.05) | only promoted cell proliferation | tendency to increase | ** (**p < 0.01) | * (*p < 0.05) | * (*p < 0.05) | ** (**p < 0.01) | significant increase | promote the differentiation of NSCs into neuronal cells with stable effects | * (*p < 0.05) |  |  |  |  |  |  | 
2 | CC(C)C[C@H](NC(=O)[C@@H](NC(=O)CNC(=O)[C@@H]1CCCN1C(=O)[C@@H](C)NC(=O)[C@@H]1CCCN1C(=O)[C@H](CC(C)C)NC(=O)[C@H](C)N)[C@@H](C)O)C(=O)O [Compound 5, H-Ala-Leu-Pro-D-Ala-Pro-Gly-Thr-Leu-OH] (H-ALP[dA]PGTL-OH) | * (*p < 0.05) |  |  | *** (***p < 0.001) | *** (***p < 0.001) | * (*p < 0.05) | ** (**p < 0.01) |  |  |  | * (*p < 0.05) | no significant effects | promoting effects | ** (**p < 0.01) |  |  | 
3 | CC(C)C[C@H](NC(=O)[C@@H](NC(=O)CNC(=O)[C@H]1CCCN1C(=O)[C@H](C)NC(=O)[C@@H]1CCCN1C(=O)[C@H](CC(C)C)NC(=O)[C@H](C)N)[C@@H](C)O)C(=O)O [Compound 6, H-Ala-Leu-Pro-Ala-D-Pro-Gly-Thr-Leu-OH] (H-ALPA[dP]GTL-OH) |  |  |  | * (*p < 0.05) | * (*p < 0.05) |  | * (*p < 0.05) |  |  |  | ** (**p < 0.01) |  |  | * (*p < 0.05) | * (*p < 0.05) | exhibited angiogenesis-promoting effects | tendency to promote neurite outgrowth
4 | CC(C)C[C@H](NC(=O)[C@H](NC(=O)CNC(=O)[C@@H]1CCCN1C(=O)[C@H](C)NC(=O)[C@@H]1CCCN1C(=O)[C@H](CC(C)C)NC(=O)[C@H](C)N)[C@H](C)O)C(=O)O [Compound 7, H-Ala-Leu-Pro-Ala-Pro-Gly-D-Thr-Leu-OH] (H-ALPAPG[dT]L-OH) | ** (**p < 0.01) | only promoted cell proliferation |  | * (*p < 0.05) |  |  | * (*p < 0.05) |  |  |  |  |  |  | ** (**p < 0.01) |  |  | tendency to promote neurite outgrowth
5 | CC(C)C[C@H](NC(=O)[C@H](C)N)C(=O)N1CCC[C@H]1C(=O)N[C@@H](C)C(=O)N1CCC[C@H]1C(=O)NCC(=O)N[C@H](C(=O)N[C@H](CC(C)C)C(=O)O)[C@@H](C)O [Compound 8, H-Ala-Leu-Pro-Ala-Pro-Gly-Thr-D-Leu-OH] (H-ALPAPGT[dL]-OH) |  |  |  |  |  |  |  |  |  |  | * (*p < 0.05) |  |  | * (*p < 0.05) | ** (**p < 0.01) | exhibited angiogenesis-promoting effects | 
6 | C[C@H](NC(=O)[C@@H]1CCCN1)C(=O)N1CCC[C@H]1C(=O)NCC(=O)O [Compound 36, H-Pro-Ala-Pro-Gly-OH] (H-PAPG-OH) | ** (**p < 0.01) |  | significant increase |  |  | * (*p < 0.05) | * (*p < 0.05) |  |  |  |  | promoting effects | no significant effects | ** (**p < 0.01) | ** (**p < 0.01) |  | tendency to promote neurite outgrowth
7 | ALPAPG [Compound 40, H-Ala-Leu-Pro-Ala-Pro-Gly-Oh] | * (*p < 0.05) | only promoted cell proliferation | significant increase |  |  |  |  | significant increase |  | * (*p < 0.05) |  |  |  | * (*p < 0.05) |  |  | 
8 | Ac-ALPAPGTL-NH2 [Compound 11, Ac-Ala-Leu-Pro-Ala-Pro-Gly-Thr-Leu-NH2] |  |  | significant increase | ** (**p < 0.01) | *** (***p < 0.001) | ** (**p < 0.01) | *** (***p < 0.001) |  |  |  | * (*p < 0.05) |  |  | ** (**p < 0.01) | * (*p < 0.05) | exhibited angiogenesis-promoting effects | promote neurite outgrowth
9 | H-ALPAAGTL-OH [Compound 17, H-Ala-Leu-Pro-Ala-Ala-Gly-Thr-Leu-OH] | ** (**p < 0.01) | only promoted cell proliferation |  |  |  |  |  | tendency to enhance |  |  |  |  |  | ** (**p < 0.01) |  |  | 
10 | H-ALPAPGAL-OH [Compound 18, H-Ala-Leu-Pro-Ala-Pro-Gly-Ala-Leu-OH] | * (*p < 0.05) |  |  |  |  |  |  |  |  |  | * (*p < 0.05) |  |  | *** (***p < 0.001) | * (*p < 0.05) | exhibited angiogenesis-promoting effects | 
11 | H-LAPAPGTL-OH [Compound 19, H-Leu-Ala-Pro-Ala-Pro-Gly-Thr-Leu-OH] |  |  |  |  |  |  |  |  |  |  | * (*p < 0.05) |  |  | ** (**p < 0.01) | * (*p < 0.05) | exhibited angiogenesis-promoting effects | 
12 | H-LPAPGT-OH [Compound 32, H-Leu-Pro-Ala-Pro-Gly-Thr-OH] | ** (**p < 0.01) |  | significant increase |  |  |  |  |  |  |  |  |  |  | * (*p < 0.05) | * (*p < 0.05) |  | 
